Experimental data from patent publication US20060252807A1, “Novel ortho-terphenyl inhibitors of p38 kinase and methods of treating inflammatory disorders” (Kalypsys, Inc., priority 2005, published 2006).

How the values were obtained:
[1] = test system: TNF-α production; assay: TNF-α production by LPS-stimulated rats (ELISA); type: in vivo, Male Lewis rats; conditions: rat, −1 hr before LPS; for inhibition at 30 mg/kg / inhibition at 10 mg/kg: read-out: LPS Induced TNF alpha (−1 hr) In Vivo (+) = >15% Inhibition (−) = ≦15% Inhibition; for ED50: oral dosing, read-out: LPS Induced TNF alpha (−1 hr) In Vivo (+) = ED50 ≦ 10 (−) = ED50 > 10
Description: TNF-α Production by LPS-Stimulated Mice
Male Lewis rats (180-200 g) were injected intraperitoneally with lipopolysaccharide (LPS) (50 μg/kg of E. coli strain 0111:B4, Sigma) suspended in sterile saline. Ninety minutes later, mice were sedated by CO2:O2 inhalation and a blood sample was obtained. Serum was separated and analyzed for TNF-α concentrations by commercial ELISA assay per the manufacturer's instructions (R&D Bioscience). Test compounds were administered orally at various times before LPS injection. The compounds were dosed either as suspensions or as solutions in various vehicles or solubilizing agents.
Compounds were dosed 0.5 to 3 hours before LPS stimulation. Rats were anaesthetized with Isofluor and injected i.v. with 0.3 mg/kg of LPS* in a volume of 0.3 ml sterile saline. Ninety minutes after the LPS injection, blood samples were collected into heparin tubes for preparation of plasma samples. Repression of TNFα production is assessed by commercial ELISA and reported below in Table 2.

[2] = target: T1, active p38 alpha enzyme (Upstate Biotechnology) (Homo sapiens, UniProt Q16539); assay: p38α biochemical assay (ATP turnover, luminescent detection, Cambrex PKlight); conditions: Table 1 Biological Activity
T1 construct: purchased Upstate Biotechnology
T1 sequence (Q16539 whole entry): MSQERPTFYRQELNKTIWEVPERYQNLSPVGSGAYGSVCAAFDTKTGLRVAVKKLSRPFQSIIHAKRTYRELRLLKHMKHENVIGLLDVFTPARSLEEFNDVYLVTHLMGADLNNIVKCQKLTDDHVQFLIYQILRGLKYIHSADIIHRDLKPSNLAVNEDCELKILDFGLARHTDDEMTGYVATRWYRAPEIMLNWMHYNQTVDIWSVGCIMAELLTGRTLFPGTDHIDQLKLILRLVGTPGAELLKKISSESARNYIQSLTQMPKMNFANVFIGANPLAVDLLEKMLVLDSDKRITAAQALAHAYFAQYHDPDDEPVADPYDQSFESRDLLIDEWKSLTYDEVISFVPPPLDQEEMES
Summary of the method: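 In this kinase reaction, p38α used MapkapK2 as phosphorylation substrate at low ATP (1.4 uM final) over 2 hours at 30C, and activity was followed as ATP turnover by luminescence.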

IC50 ([2]; p38α kinase) [nM]	SMILES	other results
	Cc1onc(-c2ccccc2)c1-c1ccn(C(=O)NC(C)C)n1 [Example 1, 3-(5-Methyl-3-phenyl-isoxazol-4-yl)pyrazole-1-carboxylic acid isopropylamide]	inhibition at 30 mg/kg [1]: > 15%; IC50 ([2]; p38α biochemical assay): ≤ 1000 nM
	Cc1onc(-c2ccc(F)cc2F)c1-c1ccn(C(=O)NC(C)C)n1 [Example 17, 3-|3-(2,4-Difluoro-phenyl)-5-methyl-isoxazol-4-yl|-pyrazole-1-carboxylic acid isopropylamide]	inhibition at 30 mg/kg [1]: > 15%; IC50 ([2]; p38α biochemical assay): ≤ 1000 nM
	Cc1onc(-c2ccc(F)cc2)c1-c1ccn(C(=O)NC(C)C)n1 [Example 18, 3-|3-(4-Fluoro-phenyl)-5-methyl-isoxazol-4-yl|-pyrazole-1-carboxylic acid isopropylamide]	inhibition at 30 mg/kg [1]: > 15%; IC50 ([2]; p38α biochemical assay): ≤ 1000 nM
	CC(C)NC(=O)n1ccc(-c2c(-c3ccc(F)cc3)noc2CN2CCOCC2)n1 [Example 26, 3-|3-(4-Fluoro-phenyl)-5-morpholin-4-ylmethyl-isoxazol-4-yl|-pyrazole-1-carboxylic acid isopropylamide]	inhibition at 10 mg/kg [1]: > 15%; ED50 [1]: ≤ 10 mg/kg; IC50 ([2]; p38α biochemical assay): ≤ 1000 nM
	Cc1onc(-c2ccc(F)cc2)c1-c1nc(C(=O)NC(C)C)cs1 [Example 27, 2-|3-(4-Fluoro-phenyl)-5-methyl-isoxazol-4-yl|-thiazole-4-carboxylic acid isopropylamide]	inhibition at 10 mg/kg [1]: > 15%; ED50 [1]: > 10 mg/kg; IC50 ([2]; p38α biochemical assay): ≤ 1000 nM
	CC(C)NC(=O)c1csc(-c2c(-c3ccc(F)cc3)noc2C2CCNCC2)n1 [Example 35, 2-|3-(4-Fluoro-phenyl)-5-piperidin-4-yl-isoxazol-4-yl|-thiazole-4-carboxylic acid isopropylamide]	inhibition at 10 mg/kg [1]: ≤ 15%; IC50 ([2]; p38α biochemical assay): ≤ 1000 nM
	Cc1nc(-c2ccc(F)cc2)c(-c2nc(C(=O)NC(C)C)cs2)o1 [Example 38]	inhibition at 10 mg/kg [1]: > 15%; ED50 [1]: ≤ 10 mg/kg; IC50 ([2]; p38α biochemical assay): ≤ 1000 nM
≤ 1000	CC(=O)C(=O)N1CCC(c2[nH]nc(-c3ccc(F)cc3)c2-c2nc(C(=O)NC(C)C)cs2)CC1 [Example 2176, 2-{3-(4-Fluoro-phenyl)-5-|1-(2-oxo-propionyl)-piperidin-4-yl|-1H-pyrazol-4-yl}-thiazole-4-carboxylic acid isopropylamide]	
≤ 1000	CC(=O)NCC(=O)N1CCC(c2[nH]nc(-c3ccc(F)cc3)c2-c2nc(C(=O)NC(C)C)cs2)CC1 [Example 2177, 2-|5-|1-(2-Acetylamino-acetyl)-piperidin-4-yl|-3-(4-fluoro-phenyl)-1H-pyrazol-4-yl|-thiazole-4-carboxylic acid isopropylamide]	
≤ 1000	CC(C)NC(=O)c1csc(-c2c(-c3ccc(F)cc3)n[nH]c2C2CCN(C(=O)c3ccncc3)CC2)n1 [Example 2178, 2-{3-(4-Fluoro-phenyl)-5-|1-(pyridine-4-carbonyl)-piperidin-4-yl|-1H-pyrazol-4-yl}-thiazole-4-carboxylic acid isopropylamide]	
≤ 1000	CC(C)NC(=O)c1csc(-c2c(-c3ccc(F)cc3)n[nH]c2C2CCN(C(=O)c3cccnc3)CC2)n1 [Example 2179, 2-{3-(4-Fluoro-phenyl)-5-|1-(pyridine-3-carbonyl)-piperidin-4-yl|-1H-pyrazol-4-yl}-thiazole-4-carboxylic acid isopropylamide]	
≤ 1000	CC(C)NC(=O)c1csc(-c2[nH][nH]c(=O)c2-c2ccc(F)cc2)n1 [Example 2180, 2-|4-(4-Fluoro-phenyl)-5-oxo-2,5-dihydro-1H-pyrazol-3-yl|-thiazole-4-carboxylic acid isopropylamide]	
> 1000	CC(C)NC(=O)c1csc(-c2c(-c3ccc(F)cc3)c(=O)[nH]n2C)n1 [Example 2182, 2-|4-(4-Fluoro-phenyl)-2-methyl-5-oxo-2,5-dihydro-1H-pyrazol-3-yl|-thiazole-4-carboxylic acid isopropyl amide]	
> 1000	CC(C)NC(=O)c1csc(-c2c(-c3ccc(F)cc3)c(=O)[nH]n2C2CCN(C(=O)OCc3ccccc3)CC2)n1 [Example 2183, 4-|4-(4-Fluoro-phenyl)-5-(4-isopropylcarbamoyl-thiazol-2-yl)-3-oxo-2,3-dihydro-pyrazol-1-yl|-piperidine-1-carboxylic acid benzyl ester]	
≤ 1000	CC(=O)N1CCC(c2onc(-c3ccc(F)cc3)c2-c2nc(C(=O)NC(C)C)cs2)CC1 [Example 2184, 2-|5-(1-Acetyl-piperidin-4-yl)-3-(4-fluoro-phenyl)-isoxazol-4-yl|-thiazole-4-carboxylic acid isopropylamide]	
≤ 1000	O=C(NCC(F)(F)F)c1csc(-c2c(-c3ccc(F)cc3)ncn2C2CCNCC2)n1 [Example 2185, 2-|5-(4-Fluoro-phenyl)-3-piperidin-4-yl-3H-imidazol-4-yl|-thiazole-4-carboxylic acid (2,2,2-trifluoro-ethyl)-amide]	
> 1000	CC(C)NC(=O)c1ccn(-c2c(-c3ccc(F)cc3)noc2C2CCNCC2)n1 [Example 2188, 1-|3-(4-Fluoro-phenyl)-5-piperidin-4-yl-isoxazol-4-yl|-1H-pyrazole-3-carboxylic acid isopropylamide]	
> 1000	CC(C)NC(=O)c1csc(-c2c(-c3ccc(F)cc3)ncn2C2CC(C)(C)NC(C)(C)C2)n1 [Example 2189, 2-|5-(4-Fluoro-phenyl)-3-(2,2,6,6-tetramethyl-piperidin-4-yl)-3H-imidazol-4-yl|-thiazole-4-carboxylic acid isopropylamide]	
≤ 1000	O=C(NC1CCCC1)c1csc(-c2c(-c3ccc(F)cc3)ncn2C2CCNCC2)n1 [Example 2190, 2-|5-(4-Fluoro-phenyl)-3-piperidin-4-yl-3H-imidazol-4-yl|-thiazole-4-carboxylic acid cyclopentylamide]	
≤ 1000	O=C(NC1CCCCC1)c1csc(-c2c(-c3ccc(F)cc3)ncn2C2CCNCC2)n1 [Example 2191, 2-|5-(4-Fluoro-phenyl)-3-piperidin-4-yl-3H-imidazol-4-yl|-thiazole-4-carboxylic acid cyclohexylamide]	
> 1000	CCN(C(=O)NCCCN(C)C)C(=O)c1csc(-c2c(-c3ccc(F)cc3)ncn2C2CCNCC2)n1 [Example 2192, 3-(3-Dimethylamino-propyl)-1-ethyl-1-{2-|5-(4-fluoro-phenyl)-3-piperidin-4-yl-3H-imidazol-4-yl|-thiazole-4-carbonyl}-urea]	
> 1000	CC(C)NC(=O)c1csc(-c2c(-c3ccc(F)cc3)ncn2C2CCN(CCO)CC2)n1 [Example 2193, 2-{5-(4-Fluoro-phenyl)-3-|1-(2-hydroxy-ethyl)-piperidin-4-yl|-3H-imidazol-4-yl}-thiazole-4-carboxylic acid isopropylamide]	
≤ 1000	CC(=O)N1CCC(n2cnc(-c3ccc(F)cc3)c2-c2nc(C(=O)NC(C)C)cs2)CC1 [Example 2194, 2-|3-(1-Acetyl-piperidin-4-yl)-5-(4-fluoro-phenyl)-3H-imidazol-4-yl|-thiazole-4-carboxylic acid isopropylamide]	
> 1000	Cc1[nH]nc(-c2ccc(F)cc2)c1-c1nc(C(=O)NC(C)C)ns1 [Example 2195, 5-|3-(4-Fluoro-phenyl)-5-methyl-1H-pyrazol-4-yl|-|1,2,4|thiadiazole-3-carboxylic acid isopropylamide]	
> 1000	Cc1[nH]nc(-c2ccc(F)cc2)c1-c1nc(C(=O)NC(C)C)no1 [Example 2196, 5-|3-(4-Fluoro-phenyl)-5-methyl-1H-pyrazol-4-yl|-|1,2,4|oxadiazole-3-carboxylic acid isopropylamide]	
